Test results from ChEMBL document CHEMBL2021794, “Synthesis, σ₁, σ₂-receptors binding affinity and antiproliferative action of new C1-substituted adamantanes” (Bioorg Med Chem, 2012).

Tests used:
Assay type in all cases: functional
PC-3 = experiment: Cell cycle arrest in human PC3 cells assessed as accumulation at G2 phase at 5 uM after 24 hrs by propidium iodide staining based flow cytometry (reference value: 13%)
U-251 = experiment: Growth inhibition of human U251 cells after 48 hrs by SRB assay; settings: U-251, 48 h
BXPC-3 = experiment: Induction of apoptosis in human BxPC3 cells assessed as total apoptotic death cells at 15 uM after 24 hrs by Annexin V/7-AAD staining based flow cytometry (reference value: 20%)
IGROV-1 = experiment: Cell cycle arrest in human IGROV1 cells assessed as accumulation at < G1 phase at 15 uM after 24 hrs by propidium iodide staining based flow cytometry (reference value: 4%)

Q: For `CN1CCN(c2ccc(C(c3ccccc3)C34CC5CC(CC(C5)C3)C4)cc2)CC1` (stereo unspecified), which Activity (PC-3) is on record?
A: The Activity was 13%.

Q: What about the GI50 (U-251) of the same compound?
A: The GI50 was 4 µM.

Q: And the TGI (U-251)?
A: Its TGI is 6.57 µM.

Q: And the CC50 (U-251; read-out: LC50 (the source's name))?
A: The CC50 was 9.14 µM.

Q: And the Activity (BXPC-3)?
A: The Activity was 28%.

Q: What about the Activity (IGROV-1) of the same compound?
A: The Activity was 11%.
